This passage reports IC50 results from BindingDB's records for doi:10.1016/j.bmcl.2004.02.040 (Ewha Womans University, 2004).

This assay has as its target cGMP-specific 3',5'-cyclic phosphodiesterase PDE5 (Oryctolagus cuniculus). Briefly: Inhibition of phosphodiesterase 5 of rabbit platelets.

On to `CCCOc1ccc(S(=O)(=O)N2CCC(CCP(=O)(O)OCC)CC2)cc1-c1nc2c(CCC)nn(C)c2c(=O)[nH]1` [(2-{1-[3-(1-Methyl-7-oxo-3-propyl-6,7-dihydro-1H-pyrazolo[4,3-d]pyrimidin-5-yl)-4-propoxy-benzenesulfonyl]-piperidin-4-yl}-ethyl)-phosphonic acid monoethyl ester], for which the IC50 (as a rule, the concentration that gives 50% inhibition) is 0.29 nM.
